Read-outs that look alike come from different tables or passages of the source.
How the values were obtained:
[1] = test system: Tr. cutaneum; test: Diagnosis from non-isolated colonies on gelose 2/5; format: cell-based, Trichosporon cutaneum
[2] = test system: C. guillermondii; test: Diagnosis from non-isolated colonies on gelose 2/5; format: cell-based, Candida guillermondii; note: key: -: none; +: weak; ++: moderate; +++: intense; ++++: very intense
[3] = test system: C. tropicalis; test: Diagnosis from non-isolated colonies on gelose 2/5; format: cell-based, Candida tropicalis; note: key: -: none; +: weak; ++: moderate; +++: intense; ++++: very intense
[4] = test system: Candida albicans; test: Tests on substrates against Candida albicans, colour reading on buffered gelose; format: cell-based; design: key to Specificity: interference with C. albicans: (a): interference with C. albicans (++++); (b): interference with C. krusei (++); (c): interference with C. tropicalis (++)
[5] = test system: Tr. cutaneum; test: Diagnosis from isolated colonies on gelose 2/5; format: cell-based, Trichosporon cutaneum; conditions: Table VI; note: key: -: none; +: weak; ++: moderate; +++: intense; ++++: very intense
[6] = test system: Candida guillermondii; test: Tests on substrates against Candida guillermondii; design: Reading at 24 h: key to the marks not given beside the values; conditions: Table V
[7] = test system: Cr. neoformans; test: Diagnosis from non-isolated colonies on gelose 2/5; format: cell-based, Cryptococcus neoformans; conditions: Table VIII; note: key: -: none; +: weak; ++: moderate; +++: intense; ++++: very intense
[8] = test system: C. albicans; test: Diagnosis from non-isolated colonies on gelose 2/5; format: cell-based, Candida albicans
[9] = test system: C. parapsilosis; test: Diagnosis from isolated colonies on gelose 2/5; format: cell-based, Candida parapsilosis; conditions: Table VI; note: key: -: none; +: weak; ++: moderate; +++: intense; ++++: very intense
[10] = test system: T. glabrata; test: Diagnosis from isolated colonies on gelose 2/5; format: cell-based, Torulopsis glabrata; conditions: isolated colonies; note: key: -: none; +: weak; ++: moderate; +++: intense; ++++: very intense
[11] = test system: T. glabrata; test: Diagnosis from non-isolated colonies on gelose 2/5; format: cell-based, Torulopsis glabrata; note: key: -: none; +: weak; ++: moderate; +++: intense; ++++: very intense
[12] = test system: C. zeylanoides; test: Diagnosis from isolated colonies on gelose 2/5; format: cell-based, Candida zeylanoides; conditions: Table VI; note: key: -: none; +: weak; ++: moderate; +++: intense; ++++: very intense
[13] = test system: C. ciferii; test: Diagnosis from non-isolated colonies on gelose 5; format: cell-based; conditions: Table IX, 1 strain, gelose 5, cycloheximide; note: key: -: none; +: weak; ++: moderate; +++: intense; ++++: very intense
[14] = test system: C. parapsilosis; test: Diagnosis from non-isolated colonies on gelose 2/5; format: cell-based, Candida parapsilosis; note: key: -: none; +: weak; ++: moderate; +++: intense; ++++: very intense
[15] = test system: C. cerevisiae; test: Diagnosis from non-isolated colonies on gelose 5; format: cell-based
Procedure: (§1) According to the afore-mentioned best mode of carrying out the invention, a culture medium containing the following ingredients is prepared; it is called gelose 5 below and is buffered to pH 6.0.
(§2) A mixture of several non-isolated strains of C. albicans, C. tropicalis, C. krusei, C. guillermondii, C. pseudotropicalis, C. parapsilosis, C. zeylanoides, C. ciferii, C. cerevisiae, Torulopsis glabrata and Trichosporon cutaneum was inoculated and incubated on the culture media according to Example 5, containing the substrate N-Ac-β-D-galactosaminide-PNP of the prior art or the substrate H-Pro-pNA.AcOH according to the invention.

[16] = test system: C. krusei; test: Diagnosis from non-isolated colonies on gelose 2/5; format: cell-based, Candida krusei
Procedure: (§3) According to the afore-mentioned best mode of carrying out the invention, a culture medium containing the following ingredients is prepared; it is called gelose 2 below and is buffered to pH 6.0.
as §1
A mixture of several non-isolated strains of C. albicans, C. tropicalis, C. krusei, C. guillermondii, C. pseudotropicalis, C. parapsilosis, Cryptococcus neoformaas, Torulopsis glabrata and Trichosporon cutaneum was inoculated and incubated on the culture media according to Examples 1 to 5, containing the substrate N-Ac-β-D-galactosaminide-PNP of the prior art or the substrate H-Pro-pNA.AcOH according to the invention. The results, which were obtained particularly with geloses 2 and 5, are collated in Table VIII below, where the TTC column relates to results of tests undertaken separately on a standard gelose medium containing TTC.
as §2

[17] = test system: C. pseudotropicalis; test: Diagnosis from non-isolated colonies on gelose 2/5; format: cell-based, Candida pseudotropicalis; note: key: -: none; +: weak; ++: moderate; +++: intense; ++++: very intense
[18] = test system: C. guillermondii; test: Diagnosis from isolated colonies on gelose 2/5; format: cell-based, Candida guillermondii; conditions: Table VI; note: key: -: none; +: weak; ++: moderate; +++: intense; ++++: very intense
[19] = test system: C. zeylanoides; test: Diagnosis from non-isolated colonies on gelose 5; format: cell-based, Candida zeylanoides; conditions: Table IX, 1 strain, gelose 5, cycloheximide; note: key: -: none; +: weak; ++: moderate; +++: intense; ++++: very intense
[20] = test system: C. krusei; test: Diagnosis from isolated colonies on gelose 2/5; format: cell-based, Candida krusei
Procedure: as §3, §1
Several isolated strains of C. albicans, C. tropicalis, C. krusei, C. guillermondii, C. pseudotropicalis, C. parapsilosis, C. zeylanoides, T. glabrata and Trichosporon cutaneum were inoculated and incubated on the media of Examples 1 to 5. […] Part of the results obtained has been collated in Table VI below, where the TTC column relates to results of tests undertaken separately on a standard gelose medium containing TTC.
Several isolated strains of C. albicans, C. tropicalis, C. krusei, C. guillermondii and T. glabrata were inoculated and incubated on the media of Example 2 [containing either the substrate N-Ac-β-D-galactosaminide-PNP of the prior art, or the substrates H-L-PropNA.AcOH (specific for C. albicans), EM-L-Phg-L-ArgpNA.AcOH (specific for T. glabrata) and H-Gly-L-Pro-L-Arg-pNA.2AcOH (specific for C. krusei)]and of Example 5 (containing the substrate H-L-Pro-pNA.AcOH).

[21] = test system: C. albicans; test: Diagnosis from isolated colonies on gelose 2/5; format: cell-based, Candida albicans; conditions: isolated colonies; note: key: -: none; +: weak; ++: moderate; +++: intense; ++++: very intense
[22] = test system: C. pseudotropicalis; test: Diagnosis from isolated colonies on gelose 2/5; format: cell-based, Candida pseudotropicalis; conditions: Table VI; note: key: -: none; +: weak; ++: moderate; +++: intense; ++++: very intense
[23] = test system: C. tropicalis; test: Diagnosis from isolated colonies on gelose 2/5; format: cell-based, Candida tropicalis; conditions: isolated colonies
[24] = test system: C. albicans, C. guillermondii, C. intermedia, C. lipolytica, C. lusitanica, C. parapsilosis, C. rugosa and C. zeylanoides; conditions: U.S. Pat. No. 4,874,695, Table IV; cited from earlier work
[25] = test system: N-acetyl-β-D-glucosaminidase; conditions: Casal et al. 1983; Polachek et al. 1987; cited from earlier work
[26] = Table IX, 2 strains, gelose 5, cycloheximide
[27] = Table VIII, 2 strains, gelose 2
[28] = Table VIII, gelose 5 (maltose, cycloheximide)
[29] = Table IX, 1 strain, gelose 5, cycloheximide
[30] = gelose 5 (maltose, cycloheximide)
[31] = Table IX, 89 strains, gelose 5, cycloheximide
[32] = Table VIII, 13 strains, gelose 2
[33] = Table VI, gelose 5 (maltose, cycloheximide)
[34] = Table VII, gelose 5 with cycloheximide
[35] = Table IX, 8 strains, gelose 5, cycloheximide
[36] = Table VIII, 8 strains, gelose 2
[37] = Table IX, non-isolated colonies, 1 strain, gelose 5, cycloheximide

With CC(=O)O.O=C(Nc1ccc([N+](=O)[O-])cc1)[C@@H]1CCCN1 [H-L-Pro-pNA.AcOH] the “Reading at t = 24 h” value [1, 26] was “-”, the “Reading at t = 24 h” value [1, 27] was “++” and the “Reading at t = 24 h” value [1, 28] was “-”. The “Reading at t = 24 h” value [2, 29] was “-”, the “Reading at t = 24 h” value ([2]; Table VIII, 1 strain, gelose 2) was “+++” and the “Reading at t = 24 h” value [2, 28] was “-”. The “Reading at t = 24 h” value [3, 29] was “-”, the “Reading at t = 24 h” value ([3]; Table VIII, 1 strain, gelose 2) was “-” and the “Reading at t = 24 h” value [3, 28] was “-”. For the same molecule, the “Specificity: nonspecific for the strains of Candida albicans” value ([4]; Table I) was “(a)”, the “Reading at 24 h” value ([4]; Table I, medium pH 6.0, YNB, glucose, agar, gentamycin, coloration or fluorescence) was “++++” and the “Specificity: interference with C. albicans” value ([4]; Table V) was “(a)”. For the same molecule, the “Reading at t = 24 h” value ([5]; 1 strain, gelose 2) was “+”, the “Reading at t = 24 h” value [5, 30] was “-” and the “Reading at 24 h” value [6] was “++++”. The “Reading at t = 24 h” value ([7]; 1 strain, gelose 2) was “-”, the “Reading at t = 24 h” value [7, 30] was “-” and the “Reading at t = 24 h” value [8, 31] was “++++”. The “Reading at t = 24 h” value [8, 32] was “++++”, the “Reading at t = 24 h” value [8, 28] was “+++” and the “Reading at t = 24 h” value ([9]; 5 strains, gelose 2) was “+++”. For the same molecule, the “Reading at t = 24 h” value [9, 30] was “-”, the “Reading at t = 24 h” value ([10]; Table VI, 4 strains, gelose 2) was “-” and the “Reading at t = 24 h” value [10, 33] was “-”. For the same molecule, the “Reading at t = 24 h” value ([10]; Table VII, 9 strains, gelose 2) was “-”, the “Reading at t = 24 h” value [10, 34] was “-” and the “Reading at t = 24 h” value [11, 35] was “-”. For the same molecule, the “Reading at t = 24 h” value [11, 36] was “-”, the “Reading at t = 24 h” value [11, 28] was “-” and the “Reading at t = 24 h” value ([12]; 1 strain, gelose 2) was “++”. The “Reading at t = 24 h” value [12, 30] was “-”, the “Reading at t = 24 h” value [13] was “-” and the “Reading at t = 24 h” value [14, 29] was “-”. For the same molecule, the “Reading at t = 24 h” value [14, 27] was “+++”, the “Reading at t = 24 h” value [14, 28] was “-” and the “Reading at t = 24 h” value [15] was “-”. The “Reading at t = 24 h” value [16] was “-”, the “Reading at t = 24 h” value [17, 26] was “-” and the “Reading at t = 24 h” value ([17]; Table VIII, 1 strain, gelose 2) was “-”. For the same molecule, the “Reading at t = 24 h” value [17, 28] was “-”, the “Reading at t = 24 h” value ([18]; 2 strains, gelose 2) was “+++” and the “Reading at t = 24 h” value [18, 30] was “-”. For the same molecule, the “Reading at t = 24 h” value [19] was “-”, the “Reading at t = 24 h” value [20] was “-” and the “Reading at t = 24 h” value ([21]; Table VI, 10 strains, gelose 2) was “++++”. The “Reading at t = 24 h” value [21, 33] was “++++”, the “Reading at t = 24 h” value ([21]; Table VII, 6 strains, gelose 2) was “++++” and the “Reading at t = 24 h” value [21, 34] was “++++”. The “Reading at t = 24 h” value ([22]; 2 strains, gelose 2) was “-”, the “Reading at t = 24 h” value [22, 30] was “-” and the “Reading at t = 24 h” value ([23]; Table VI, 4 strains, gelose 2) was “-”. For the same molecule, the “Reading at t = 24 h” value [23, 33] was “-”, the “Reading at t = 24 h” value ([23]; Table VII, 9 strains, gelose 2) was “-” and the “Reading at t = 24 h” value [23, 34] was “-”.

For O=C(Nc1ccc([N+](=O)[O-])cc1)[C@@H]1CCCN1 [H-L-Pro-pNA], the “sensitivity towards strains of Candida” value [24] is listed as “sensitive towards several strains of Candida”.

With CC(=O)N[C@H]1[C@H](Oc2ccc([N+](=O)[O-])cc2)O[C@H](CO)[C@H](O)[C@@H]1O [NAc-D-galactosaminide-PNP, N-Ac-β-D-galactosaminide-PNP, reference compound] the “Reading at t = 24 h” value [1, 26] was “-”, the “Reading at t = 24 h” value [1, 27] was “- result for 1 strain and +++ result for the other strain” and the “Reading at t = 24 h” value [2, 29] was “-”. For the same molecule, the “Reading at t = 24 h” value ([2]; Table VIII, 1 strain, gelose 2) was “-”, the “Reading at t = 24 h” value [3, 29] was “-” and the “Reading at t = 24 h” value ([3]; Table VIII, 1 strain, gelose 2) was “-”. For the same molecule, the “Reading at t = 24 h” value ([5]; 1 strain, gelose 2) was “++”, the “Reading at t = 24 h” value ([7]; 1 strain, gelose 2) was “-” and the “Reading at t = 24 h” value [8, 31] was “++++ and negative for 2 out of 89 strains”. For the same molecule, the “Reading at t = 24 h” value [8, 32] was “++++”, the “Reading at t = 24 h” value ([9]; 5 strains, gelose 2) was “-” and the “Reading at t = 24 h” value ([10]; Table VI, 4 strains, gelose 2) was “-”. For the same molecule, the “Reading at t = 24 h” value ([10]; Table VII, 9 strains, gelose 2) was “-”, the “Reading at t = 24 h” value [11, 35] was “-” and the “Reading at t = 24 h” value [11, 36] was “-”. The “Reading at t = 24 h” value ([12]; 1 strain, gelose 2) was “-”, the “Reading at t = 24 h” value [13] was “-” and the “Reading at t = 24 h” value [14, 29] was “-”. The “Reading at t = 24 h” value [14, 27] was “-”, the “Reading at t = 24 h” value [15, 37] was “-” and the “Reading at t = 24 h” value [16, 37] was “-”. For the same molecule, the “Reading at t = 24 h” value ([16]; Table VIII, non-isolated colonies, 6 strains, gelose 2) was “-”, the “Reading at t = 24 h” value [17, 26] was “-” and the “Reading at t = 24 h” value ([17]; Table VIII, 1 strain, gelose 2) was “-”. For the same molecule, the “Reading at t = 24 h” value ([18]; 2 strains, gelose 2) was “-”, the “Reading at t = 24 h” value [19] was “-” and the “Reading at t = 24 h” value ([20]; Table VI, isolated colonies, 4 strains, gelose 2) was “-”. The “Reading at t = 24 h” value ([20]; Table VII, isolated colonies, 6 strains, gelose 2) was “-”, the “Reading at t = 24 h” value ([21]; Table VI, 10 strains, gelose 2) was “++++” and the “Reading at t = 24 h” value ([21]; Table VII, 6 strains, gelose 2) was “+++”. For the same molecule, the “Reading at t = 24 h” value ([22]; 2 strains, gelose 2) was “-”, the “Reading at t = 24 h” value ([23]; Table VI, 4 strains, gelose 2) was 3 gave the result - and 1 the result ++ and the “Reading at t = 24 h” value ([23]; Table VII, 9 strains, gelose 2) was “positive (++) for only 1 of the 9 strains tested and negative”.

In the case of CC(=O)N[C@H]1[C@H](Oc2ccc3ccccc3c2)O[C@H](CO)[C@@H](O)[C@@H]1O [β-naphthyl-N-acetyl-β-D-glucosaminide], the “reaction with isolated strains” value [25] is listed as “positive reaction”.

Source: patent US5449612A, “Process for identifying candida by means of chromogenic substances” (Serbio, priority 1990, dated 1995)
